Data on eleven compounds can be found in patent US20250163057A1, “DCN-1 MODULATING COMPOUNDS AND METHODS OF USE THEREOF” (Cellarity, Inc., priority 2023, published 2025).

Where two headings read alike, the source gives them in different places.

Series [1] has as its system Cullin-3 (CUL3) neddylation. As to the kind of experiment: AlphaLISA assay for Cullin-3 (CUL3) neddylation in TF 1 cells. Format: cell-based. Conditions: Homo sapiens, TF-1, 3 h, 3 hours treatment. The procedure, abridged: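 Neddylated CUL3 was quantified by AlphaLISA in lysates of TF 1 cells exposed for 3 h to test compound in IMDM without supplements. Percent inhibition set between vehicle and 1 μM DI-1548 positive control; IC50 derived by Hill-equation fitting of dose-response curves.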
(In Alpha technology, singlet oxygen from a donor bead excites a nearby acceptor bead.)

Series [2] deals with T1, DCN1 (DCUND1) protein PONY domain (Homo sapiens (Human), UniProt Q96GG9). Description: TR-FRET assay, DCN1 binding with FAM-labeled probe. In short, it runs like this: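 Biotinylated DCN1 PONY domain, labeled with streptavidin-Tb, was competed against a FAM-labeled non-covalent DCN1 inhibitor probe in buffer with TritonX and 200 mM NaCl. Conditions were 5 nM DCN1 with 20 nM FAM-probe, or 0.31 nM DCN1 with 100 nM FAM-plus 800 nM unlabeled probe. The TR-FRET ratio was read at 1, 5 and 24 h (0.1% DMSO).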
On the technique in general: In TR-FRET formats the signal depends on donor and acceptor labels being close together.

Series [3] concerns the target T1, DCN1 (DCUND1) protein PONY domain. Description: Off-rate measurement of reversible covalent molecules (jump dilution TR-FRET with Cy5 probe). Format: binding. The following applies: for Category: binding mode category from off-rate assay; for residence time: inverse of rate constant K; for residence time / half-life: jump dilution TR-FRET; for koff: jump dilution, Cy5 covalent probe 150 nM, TR-FRET; for half-life: ln(2)/K. The text has this:
A typical covalent compound is assumed to stay bound to a protein for at least the life of that protein in the cell. In reality, there is a range of how long a covalent compounds remains bound before a reverse reaction takes place. Thus, some covalent bonds can be labeled as reversible as their reverse reaction takes place in a measurable amount of time under physiological conditions. The assay capitalizes on the range of covalent binders by using a high affinity covalent binder as a probe to displace the more reversible binders in an adaptation of the jump dilution method.
In this version of the jump dilution method, the increase in covalent probe binding over time was measured through a TR-FRET reaction between the covalent probe and the biotinylated target protein.
The recombinant form of the DCN1 (DCUND1) protein PONY domain was produced using an E. coli expression system at Viva Biotech (China). The DCN1 protein was biotinylated (EZ sulfo-NHS-LC-biotin; Thermofisher) for labeling with streptavidin terbium (Tb) cryptate in the reaction. This biotinylated protein was used in two forms of the TR-FRET assay as described below.
The off-rate measurement is executed in two steps based on the jump dilution method. […] The greatest dilution allowed within the constraints of the assay was chosen. These factors allow a competitive advantage for the covalent probe to replace the test compound when that compound releases from the target protein. The actual measure is the rate of increased TR-FRET signal as the covalent probe replaces the test compound over time. […] The resulting time dependent curve of the TR-FRET signal is fit to the following equation:
Y=Y0+(Plateau−Y0)*(1−exp(−K*x))
K is the rate constant (1/unit of time). The residence time is defined as the inverse of K, the rate constant. The half-life is calculated as ln(2)/K.

The target of another series is DCN1 protein (Homo sapiens (Human), UniProt Q96GG9). As to the kind of experiment: Intact Protein MS Analysis with the RapidFire-TOF System (covalent adduct formation). Format: binding. Conditions: MS Emax; 400 nM DCN1, 3 hours at room temperature. In short, it runs like this: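 Tag-cleaved human DCN1 (400 nM) expressed in E. coli, in 25 mM Tris-HCl, 200 mM NaCl, 1 mM DTT, was incubated with 11 compound concentrations for 3 h at room temperature and quenched with 0.2% formic acid. Intact-protein Q-TOF MS with deconvolution detected the compound adduct mass.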

The test system of series [4] is fetal hemoglobin gene HBG1. Description: HBG1 Nanostring Assay in CD34+ HSPC erythroid differentiation culture. Format: cell-based, human. The following applies: for EC50: Homo sapiens, 240 h, HBG1 induction, Day10 of erythroid differentiation; for Nanostring Ymax obs (%): relative to a control compound (C1). In short, it runs like this: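 HBG1 counts came from direct nCounter hybridization (67° C, 22 h) of day-10 lysates, normalized to ERCC positive controls and a housekeeping gene, giving EC50 and Ymax versus a reference compound. Compounds in 0.1% DMSO were present from day −2 while cells underwent EPO/SCF/IL-3 erythroid differentiation, with IL-3 dropped at day 7, at 37° C.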

[5] abbreviates: 24 hr after treatment with compound, read-out: TR FRET IC50 24 hr.
The mark [6] stands for this setting: read-out: TR FRET IC50 1 hr, 1 hr after treatment with compound.
Setting [7] is: TR FRET IC50 1 hr (nM), 1 hr after treatment with compound.

T1 sequence (Q96GG9 60-248): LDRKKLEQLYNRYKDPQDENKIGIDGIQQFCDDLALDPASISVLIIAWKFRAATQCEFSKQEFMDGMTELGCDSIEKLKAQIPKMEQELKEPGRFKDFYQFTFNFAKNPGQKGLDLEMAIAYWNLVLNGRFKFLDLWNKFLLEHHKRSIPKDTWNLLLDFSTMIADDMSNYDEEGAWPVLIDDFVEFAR
Sequence of DCN1 protein (Q96GG9 whole entry): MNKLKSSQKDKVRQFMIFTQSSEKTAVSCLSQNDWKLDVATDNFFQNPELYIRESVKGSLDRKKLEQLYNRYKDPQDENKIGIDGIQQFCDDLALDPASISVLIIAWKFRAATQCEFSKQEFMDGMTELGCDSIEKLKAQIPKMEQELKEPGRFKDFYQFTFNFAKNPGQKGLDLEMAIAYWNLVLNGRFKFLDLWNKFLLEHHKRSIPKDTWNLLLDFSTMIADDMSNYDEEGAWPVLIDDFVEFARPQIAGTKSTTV

In the case of `CCN1C(=O)[C@@H](NC(=O)c2cccc(C(F)(F)F)c2)[C@@H](c2ccc(F)cc2)c2c(C(=O)N3CCS(=O)(=O)C[C@H]3C#N)nn(C3CCOCC3)c21` (mixture of isomers) [Compound I-436], the IC50 in series [1] is at most 0.1 µM. Moreover, the IC50 in series [2] (setting [5]) was at most 200 nM. For the same compound, in series [2] (setting [6]), the IC50 was at most 200 nM. For the same compound, in series [3], the Category entry is “reversible covalent”, the residence time amounted to 76.7 min, the koff was 0.000238 s⁻¹ and the half-life was 0.8857 h.
Turning to `CCN1C(=O)[C@@H](NC(=O)c2cccc(C(F)(F)F)c2)[C@@H](C2CC2)c2c(C(=O)N3CCN(C)C[C@H]3C#N)nn(C3CCOCC3)c21` (single isomer, unassigned) [Compound I-430], the results for the IC50 in series [1], in series [2] (setting [5]) and in series [2] (setting [7]) were at most 0.1 µM, at most 200 nM and 200 to 1000 nM, respectively. Further, the Category result in series [3] is given as “slow reversible”.
For `CCN1C(=O)[C@@H](NC(=O)c2cccc(C(F)(F)F)c2)[C@@H](C2CC2)c2c(C(=O)N3CCC[C@H]3C#N)nn(C3CCOCC3)c21` [Compound I-348], the IC50 in series [1] is at most 0.1 µM; in series [2] (setting [5]), at most 200 nM; in series [2] (setting [7]), 200 to 1000 nM. In series [3], the Category result is “slow reversible”. The “% Adduct Formation” value on DCN1 protein is “++ (MS Emax % adduct formation greater than 30.0 and less than or equal to 80.0)”.
As for `CCN1C(=O)[C@@H](NC(=O)c2cccc(C(F)(F)F)c2)[C@@H](c2ccc(F)cc2)c2c(C(=O)N3[C@H](C#N)C[C@H]4C[C@H]43)nn(C3COC3)c21` [Compound I-362, N-((4S,5S)-3-((1R,3S,5R)-3-cyano-2-azabicyclo[3.1.0]hexane-2-carbonyl)-7-ethyl-4-(4-fluorophenyl)-1-(oxetan-3-yl)-6-oxo-4,5,6,7-tetrahydro-1H-pyrazolo[3,4-b]pyridin-5-yl)-3-(trifluoromethyl)benzamide], the IC50 is at most 0.1 µM in series [1], at most 200 nM in series [2] (setting [5]) and at most 200 nM in series [2] (setting [6]). In series [4], this compound registered an EC50 of at most 0.1 µM. In addition, the “Nanostring Ymax obs (%)” value in series [4] is “++ (Nanostring Ymax greater than 50.0 and less than or equal to 100.0)”. Besides, the “% Adduct Formation” value on DCN1 protein was “+++ (MS Emax % adduct formation greater than 80.0 and less than or equal to 100.0)”.
As for `CCN1C(=O)[C@@H](NC(=O)c2cccc(C(F)(F)F)c2)[C@@H](c2ccc(F)cc2)c2c(C(=O)N3CCNC[C@@H]3C#N)nn(C3CCOCC3)c21` [Compound I-364], the IC50 in series [1] was at most 0.1 µM; in series [2] (setting [5]) it was at most 200 nM; in series [2] (setting [6]) it was at most 200 nM. The compound further registered an EC50 in series [4] of at most 0.1 µM. The “Nanostring Ymax obs (%)” value in series [4] is “++ (Nanostring Ymax greater than 50.0 and less than or equal to 100.0)”. Moreover, the “% Adduct Formation” value at DCN1 protein was “+++ (MS Emax % adduct formation greater than 80.0 and less than or equal to 100.0)”.
For `CCN1C(=O)[C@@H](NC(=O)c2cccc(C(F)(F)F)c2)[C@@H](C2CC2)c2c(C(=O)N(C)CC#N)nn(C3CCOCC3)c21` [Compound I-374], the IC50 in series [1] was at most 0.1 µM; in series [2] (setting [5]), at most 200 nM; in series [2] (setting [7]) it was 200 to 1000 nM. In series [4], the EC50 was at most 0.1 µM. Moreover, in series [4], the “Nanostring Ymax obs (%)” value was “+++ (Nanostring Ymax greater than 100.0)”. Moreover, the “% Adduct Formation” value at DCN1 protein was “+++ (MS Emax % adduct formation greater than 80.0 and less than or equal to 100.0)”.
For the compound `CCN1C(=O)[C@@H](NC(=O)c2cccc(C(F)(F)F)c2)[C@@H](C2CC2)c2c(C(=O)N3CC(F)(F)C[C@H]3C#N)nn(C3CCOCC3)c21` [Compound I-378], the IC50 in series [1] is at most 0.1 µM; in series [2] (setting [5]), at most 200 nM; in series [2] (setting [6]), at most 200 nM. For the same compound, the EC50 in series [4] was at most 0.1 µM. In addition, in series [4], the “Nanostring Ymax obs (%)” value was “++ (Nanostring Ymax greater than 50.0 and less than or equal to 100.0)”. The “% Adduct Formation” value on DCN1 protein was “+++ (MS Emax % adduct formation greater than 80.0 and less than or equal to 100.0)”.
As for `CCN1C(=O)[C@@H](NC(=O)c2cccc(C(F)(F)F)c2)[C@@H](C2CC2)c2c(C(=O)N3CCOC[C@H]3C#N)nn(C3CCOCC3)c21` [Compound I-381], the IC50 in series [2] (setting [5]) was at most 200 nM. The IC50 in series [2] (setting [6]) is at most 200 nM. Further, in series [3], the Category entry was “reversible covalent”, the residence time came out at 297 min, the koff was 5.62e-05 s⁻¹ and the half-life is 3.427 h. Besides, the “% Adduct Formation” value on DCN1 protein was “+++ (MS Emax % adduct formation greater than 80.0 and less than or equal to 100.0)”.
With `CCN1C(=O)[C@@H](NC(=O)c2cccc(C(F)(F)F)c2)[C@@H](c2ccc(F)cc2)c2c(C(=O)N3CC[C@H]3C#N)nn(C3CCOCC3)c21` [Compound I-384], the IC50 in series [1] is at most 0.1 µM. Also, the IC50 in series [2] (setting [5]) is at most 200 nM. In addition, the IC50 in series [2] (setting [6]) was at most 200 nM. Besides, in series [3], the Category result was “reversible covalent”, the residence time worked out at 184 min, the koff is 9.21e-05 s⁻¹ and the half-life was found to be 2.122 h. Also, the “% Adduct Formation” value at DCN1 protein was “+ (MS Emax % adduct formation greater than or equal to 0.0 and less than or equal to 30.0)”.
Regarding `CCN1C(=O)[C@@H](NC(=O)c2cccc(C(F)(F)F)c2)[C@@H](C2CC2)c2c(C(=O)N3CS(=O)(=O)C[C@@H]3C#N)nn(C3CCOCC3)c21` [Compound I-560], the IC50 in series [1] was at most 0.1 µM. In series [2] (setting [5]), the IC50 was at most 200 nM. In series [2] (setting [6]), the IC50 was at most 200 nM. Moreover, in series [3], the Category result is given as “fast reversible”, the residence time was 44.1 min, the koff was 0.000378 s⁻¹ and the half-life turned out to be 0.509 h.
Regarding `CCN1C(=O)[C@@H](NC(=O)c2cccc(C(F)(F)F)c2)[C@@H](C2CC2)c2c(C(=O)N3CC[C@H]3C#N)nn(C3CCOCC3)c21` [Compound I-660], in series [1], the IC50 is at most 0.1 µM. In addition, in series [2] (setting [5]), the IC50 was at most 200 nM. In addition, in series [2] (setting [6]), the IC50 is at most 200 nM. For the same compound, in series [3], the Category entry was “reversible covalent”, the residence time was 266 min, the koff is 6.28e-05 s⁻¹ and the half-life worked out at 3.07 h.

As a reminder, the IC50 is the midpoint of a concentration-inhibition curve. Usually koff stands for the rate constant with which the complex falls apart. Low readings indicate slow dissociation, high ones fast dissociation. In general, half-life refers to how long it takes for the measured level to halve. As usually defined, the EC50 is the concentration at which the effect is half-maximal. Higher therefore signals a need for much substance.
